Values after ≈ are worked out from the molar mass of the structure shown.
Key:
[1] = test system: Jurkat; experiment: Antiproliferative activity against human Jurkat cells assessed as inhibition of cell proliferation incubated for 72 hrs by MTT assay; format: functional, cell-based
[2] = test system: A549; experiment: Antiproliferative activity against human A549 cells assessed as inhibition of cell proliferation incubated for 72 hrs by MTT assay; format: functional, cell-based; details: A549, 72 h
[3] = test system: MCF7; experiment: Antiproliferative activity against human MCF7 cells assessed as inhibition of cell proliferation incubated for 72 hrs by MTT assay; format: functional, cell-based; details: MCF7, 72 h
[4] = test system: Calf thymus DNA; experiment: Binding affinity to calf thymus DNA assessed as DNA intercalation by measuring change in melting temperature by thermal denaturation assay; format: nucleic-acid assay; details: Bos taurus
[5] = test system: A2780; experiment: Cytotoxicity against human A2780 cells assessed as inhibition of cell growth incubated for 72 hrs by SRB assay; format: functional, cell-based; details: A2780, 72 h
[6] = test system: Staphylococcus aureus; experiment: Antibacterial activity against Staphylococcus aureus MTCC 96 assessed as inhibition of bacterial growth by agar well diffusion assay; format: functional
[7] = test system: Staphylococcus epidermidis; experiment: Antibacterial activity against Staphylococcus epidermidis MTCC 435 assessed as inhibition of bacterial growth by agar well diffusion assay; format: functional
[8] = test system: Escherichia coli; experiment: Antibacterial activity against Escherichia coli MTCC 443 assessed as inhibition of bacterial growth by agar well diffusion assay; format: functional
[9] = test system: Pseudomonas aeruginosa; experiment: Antibacterial activity against Pseudomonas aeruginosa MTCC 741 assessed as inhibition of bacterial growth by agar well diffusion assay; format: functional
[10] = test system: MCF7; experiment: Antiproliferative activity against human MCF7 cells assessed as inhibition of cell proliferation; format: functional, cell-based
[11] = test system: HT-29; experiment: Antiproliferative activity against human HT-29 cells assessed as inhibition of cell proliferation; format: functional, cell-based
[12] = test system: Calf thymus DNA; experiment: Binding affinity to calf thymus DNA assessed as DNA intercalation by measuring change in melting temperature by thermal denaturation assay based UV-Vis spectrophotometric analysis; format: nucleic-acid assay; details: Bos taurus
[13] = test system: Calf thymus DNA; experiment: Binding affinity to calf thymus DNA assessed as binding constant incubated for 30 mins by fluorescence based EtBr-displacement assay; format: nucleic-acid assay; details: Bos taurus
[14] = Antioxidant activity assessed as DPPH radical scavenging activity incubated for 30 mins by UV-Vis spectrophotometer assay; format: functional
[15] = Antioxidant activity assessed as hydrogen peroxide free radical scavenging activity incubated for 10 mins; format: functional
[16] = test system: HCT-116; experiment: Cytotoxicity against human HCT-116 cells assessed as inhibition of cell growth incubated for 24 hrs by XTT assay; format: functional, cell-based; details: HCT-116, 24 h
[17] = test system: PANC-1; experiment: Cytotoxicity against human PANC-1 cells assessed as inhibition of cell growth incubated for 24 hrs by XTT assay; format: functional, cell-based; details: PANC-1, 24 h
[18] = test system: HeLa; experiment: Cytotoxicity against human HeLa cells assessed as inhibition of cell growth by MTT assay; format: functional, cell-based
[19] = test system: MCF7; experiment: Cytotoxicity against human MCF7 cells assessed as inhibition of cell growth by MTT assay; format: functional, cell-based
[20] = test system: SGC-7901; experiment: Cytotoxicity against human SGC-7901 cells assessed as inhibition of cell growth by MTT assay; format: functional, cell-based
[21] = test system: A549; experiment: Cytotoxicity against human A549 cells assessed as inhibition of cell growth by MTT assay; format: functional, cell-based
[22] = test system: Calf thymus DNA; experiment: Binding affinity to calf thymus DNA assessed as DNA intercalation by measuring binding constant by fluorescence spectroscopic assay; format: nucleic-acid assay; details: Bos taurus
[23] = test system: MCF7; experiment: Cytotoxicity against human MCF7 cells assessed as inhibition of cell growth incubated for 24 hrs by CCK-8 assay; format: functional, cell-based; details: MCF7, 24 h
[24] = test system: HeLa; experiment: Cytotoxicity against human HeLa cells assessed as inhibition of cell growth incubated for 48 hrs by MTT spectrophotometric assay; format: functional, cell-based
[25] = test system: SGC-7901; experiment: Cytotoxicity against human SGC-7901 cells assessed as inhibition of cell growth incubated for 48 hrs by MTT spectrophotometric assay; format: functional, cell-based; details: SGC-7901, 48 h
[26] = test system: A549; experiment: Cytotoxicity against human A549 cells assessed as inhibition of cell growth incubated for 48 hrs by MTT spectrophotometric assay; format: functional, cell-based; details: A549, 48 h
[27] = test system: Calf thymus DNA; experiment: Binding affinity to calf thymus DNA assessed as binding constant by UV-Vis spectroscopic analysis; format: nucleic-acid assay; details: Bos taurus
[28] = test system: SMMC-7721; experiment: Antiproliferative activity against human SMMC-7721 cells assessed as inhibition of cell proliferation incubated for 48 hrs by MTT assay; format: functional, cell-based; details: SMMC-7721, 48 h
[29] = test system: MCF7; experiment: Antiproliferative activity against human MCF7 cells assessed as inhibition of cell proliferation incubated for 48 hrs by MTT assay; format: functional, cell-based; details: MCF7, 48 h
[30] = test system: HeLa; experiment: Antiproliferative activity against human HeLa cells assessed as inhibition of cell proliferation incubated for 48 hrs by MTT assay; format: functional, cell-based
[31] = test system: HL-60; experiment: Antiproliferative activity against human HL-60 cells assessed as inhibition of cell growth; format: functional, cell-based
[32] = test system: A549; experiment: Antiproliferative activity against human A549 cells assessed as inhibition of cell growth; format: functional, cell-based
[33] = test system: HeLa; experiment: Antiproliferative activity against human HeLa cells assessed as inhibition of cell growth; format: functional, cell-based
[34] = test system: SK-MEL-28; experiment: Growth inhibition against human SK-MEL-28 cells at 10 uM incubated for 48 hrs by sulforhodamine B reagent assay; format: functional; details: read-out: GI

O=C1c2cccc3cccc(c23)C(=O)N1CC/N=C/c1ccccn1
IC50 [1]: 5.58 µM
IC50 [2]: 5.67 µM
IC50 [3]: 5.67 µM

COc1cccc2cc(-c3csc(N4C(=O)c5ccc6c7c(ccc(c57)C4=O)C(=O)N(c4nc(-c5cc7cccc(OC)c7oc5=O)cs4)C6=O)n3)c(=O)oc12
ΔTm [4]: 0.1 °C
IC50 [5]: < 0.1 µM
MIC [6]: 18.8 mg/L (≈ 24 µM)
MIC [7]: 18.8 mg/L (≈ 24 µM)
MIC [8]: 18.8 mg/L (≈ 24 µM)
MIC [9]: 18.8 mg/L (≈ 24 µM)

C[n+]1ccn(CCCN2C(=O)c3cccc4cccc(c34)C2=O)c1
IC50 [10]: 4.6 µM
IC50 [11]: 4.6 µM
ΔTm [12]: 3 °C

CCOc1cc(/C=N/N2C(=O)c3cccc4cccc(c34)C2=O)ccc1O
Kb [13]: 3.33 10^4/M
IC50 [14]: 1280 mg/L (≈ 3550 µM)
IC50 [15]: 1060 mg/L (≈ 2940 µM)

COS(=O)(=O)CCCCSc1ccc2c3c(cccc13)C(=O)N(CCN(C)C)C2=O
IC50 [16]: 11.7 µM
IC50 [17]: 11.7 µM

CCSc1ccc2c3c(cccc13)C(=O)N(CCCn1cc[n+](C)c1)C2=O
IC50 [10]: 4.6 µM
IC50 [11]: 4.6 µM
ΔTm [12]: 3 °C

CN(C)CCN1C(=O)c2cccc3c(N4CCC[C@@H]4CO)ccc(c23)C1=O
IC50 [18]: 0.87 µM
IC50 [19]: 0.87 µM
IC50 [20]: 0.87 µM
IC50 [21]: 0.87 µM
Kb [22]: 1.8 10^4/M

CN(C)CCN1C(=O)c2cccc3c(N(CCCl)CCCl)ccc(c23)C1=O
IC50 [16]: 1.9 µM
IC50 [17]: 1.9 µM

CN(C)CCCN1C(=O)c2cccc3c(NCCNC(=N)N)ccc(c23)C1=O
IC50 [23]: 10.4 µM

CN(C)CCCNc1ccc2c3c(cccc13)C(=O)N(CCCN(C)C)C2=O
IC50 [23]: 2.04 µM

CN(C)CCN1C(=O)c2cccc3c(N4CCN(CCCO)CC4)ccc(c23)C1=O
IC50 [24]: < 7 µM
IC50 [25]: < 7 µM
IC50 [26]: < 7 µM
Kb [27]: 0.47 10^5/M

CN(C)CCN1C(=O)c2cccc3cc(-n4ccnn4)cc(c23)C1=O
Kb [27]: 5.1 10^5/M
IC50 [28]: 0.3 µM
IC50 [29]: 0.3 µM
IC50 [30]: 0.3 µM

CN(C)CCN1C(=O)c2cccc3c(NCCNCCNCCNCCN)ccc(c23)C1=O
ΔTm [4]: 11.8 °C
IC50 [31]: 13.1 µM
IC50 [32]: 13.1 µM
IC50 [33]: 13.1 µM

CN(C)CCN1C(=O)c2cccc3c(N4CCC[C@H]4CO)ccc(c23)C1=O
IC50 [18]: 0.87 µM
IC50 [19]: 0.87 µM
IC50 [20]: 0.87 µM
IC50 [21]: 0.87 µM
Kb [22]: 1.8 10^4/M

CN(C)CCN1C(=O)c2cccc3c(N4CC[C@H](O)C4)ccc(c23)C1=O
IC50 [18]: 0.87 µM
IC50 [19]: 0.87 µM
IC50 [20]: 0.87 µM
IC50 [21]: 0.87 µM
Kb [22]: 1.8 10^4/M

CN(C)CCN1C(=O)c2cccc3c(N4CCN(CCO)CC4)ccc(c23)C1=O
IC50 [24]: < 7 µM
IC50 [25]: < 7 µM
IC50 [26]: < 7 µM
Kb [27]: 0.47 10^5/M

CC[n+]1ccn(CCCN2C(=O)c3cccc4cccc(c34)C2=O)c1
IC50 [10]: 4.6 µM
IC50 [11]: 4.6 µM
ΔTm [12]: 3 °C

O=C1c2cccc3cccc(c23)C(=O)N1CCCn1cc[n+](Cc2ccccc2)c1
IC50 [10]: 4.6 µM
IC50 [11]: 4.6 µM
ΔTm [12]: 3 °C

CN1CCN(c2ccc3nc(-c4ccc(OCCCCN5CCN(CCCCN6C(=O)c7cccc8cccc(c78)C6=O)CC5)cc4)[nH]c3c2)CC1
inhibition of growth at 10 µM [34]: 50%

CN(C)CCN1C(=O)c2cccc3c(N4CC[C@@H](O)C4)ccc(c23)C1=O
IC50 [18]: 0.87 µM
IC50 [19]: 0.87 µM
IC50 [20]: 0.87 µM
IC50 [21]: 0.87 µM
Kb [22]: 1.8 10^4/M

CN(C)CCN1C(=O)c2cccc3c(NCCNCCNCCN)ccc(c23)C1=O
ΔTm [4]: 11.8 °C
IC50 [31]: 13.1 µM
IC50 [32]: 13.1 µM
IC50 [33]: 13.1 µM

O=C1c2cccc3cccc(c23)C(=O)N1CCCCN1CCN(CCCCOc2ccc(-c3nc4ccc(N5CCOCC5)cc4[nH]3)cc2)CC1
inhibition of growth at 10 µM [34]: 50%

COc1cccc(/C=N/N2C(=O)c3cccc4cccc(c34)C2=O)c1O
Kb [13]: 2.25 10^4/M
IC50 [14]: 1430 mg/L (≈ 4130 µM)
IC50 [15]: 1170 mg/L (≈ 3380 µM)

O=C1c2cccc3cccc(c23)C(=O)N1CCCCCN1CCN(CCCCCOc2ccc(-c3nc4ccc(N5CCOCC5)cc4[nH]3)cc2)CC1
inhibition of growth at 10 µM [34]: 50%

CN(C)CCCN1C(=O)c2cccc3c(NCCN)ccc(c23)C1=O
IC50 [23]: 56.6 µM

CN(C)CCN1C(=O)c2cccc3c(N(C)CCCl)ccc(c23)C1=O
IC50 [16]: 1.9 µM
IC50 [17]: 1.9 µM

CN(C)CCN1C(=O)c2cccc3c(NCCNCCN)ccc(c23)C1=O
ΔTm [4]: 11.8 °C
IC50 [31]: 13.1 µM
IC50 [32]: 3.16 µM
IC50 [33]: 13.1 µM

O=C1c2ccc3c4c(ccc(c24)C(=O)N1c1nc(-c2cc4ccccc4oc2=O)cs1)C(=O)N(c1nc(-c2cc4ccccc4oc2=O)cs1)C3=O
ΔTm [4]: 0.1 °C
IC50 [5]: < 0.1 µM
MIC [6]: 18.8 mg/L (≈ 26 µM)
MIC [7]: 18.8 mg/L (≈ 26 µM)
MIC [8]: 18.8 mg/L (≈ 26 µM)
MIC [9]: 18.8 mg/L (≈ 26 µM)
